Laboratory results as given in a melting point compilation (Tetko et al.; mined from patent text by program, amines drawn as free bases though some values may be those of a salt).

Row | SMILES | melting point [°C]
1 | N#Cc1ccc(NC(=O)c2cc(-c3ccc(F)cc3F)ccc2O)cc1 | 189 to 190
2 | CN1CCCC1=NCCSc1c[nH]c2ccccc12 | 144 to 146
3 | CCOC(=O)c1c(C)nn(C)c1S(=O)(=O)N=c1nc2nc(C)cc(C)n2s1 | 167 to 168
4 | CC(C)(C)OC(=O)NCC(=O)Oc1cc(Cl)c(Cl)cc1Cl | 100 to 103
5 | O=C(O)CC(=O)N1CCSCC1 | 119 to 120
6 | COC(=O)C1=C(C)NC(C)=C(C(=O)OCC2CCCO2)C1c1cccc(Cl)c1Cl (stereo not drawn) | 172 to 173
7 | CC(C)Nc1cc(Cl)nnc1NN | 132 to 135
8 | CCC12CCC3C4CCC(=O)C=C4CCC3C1CCC2OC(=O)c1ccccc1 (stereo not drawn) | 141 to 149
9 | O=S(=O)(Nc1cccc(CCOCc2ccc(-c3ccc(OC(F)(F)F)cc3)cc2F)c1)C(F)(F)F | 114 to 115
10 | O=C(CN1C(=O)CSC1=O)c1ccc(Cl)cc1 | 122 to 124
11 | CCS(=O)(=O)N(c1cc([N+](=O)[O-])c(F)cc1Br)S(=O)(=O)CC | 144 to 146
12 | O=S1(=O)Nc2cccc3c2N1CCC3 | 96
13 | CCN(CC)CCOc1ccc(C(O)(CC)c2ccc(Cl)cc2)cc1 (stereo not drawn) | 50 to 51
14 | CCC(=O)C(=C1NCCCS1)[N+](=O)[O-] | 77.5 to 79.5
15 | Cc1ncc2c(C#N)c(-c3ccc(S(=O)(=O)N[C@@H](C)C4CC4)cn3)n(C3CCC3)c2n1 | 155 to 157
16 | CC(C)(C)C1=C(C#N)C(c2cccc3nonc23)c2c[nH]nc2N1 (stereo not drawn) | 204
17 | O=C(C1CCCC1)N1CCc2cc(S(=O)(=O)N3CCN(c4cccc(Cl)c4)CC3)ccc21 | 166 to 167
18 | CCOC(=O)Cc1cc(O)ccc1F | 85 to 87
19 | O=C(Nc1ccc(C(F)(F)F)cc1)NC1CCS(=O)(=O)CC1 | 196 to 198
20 | COC(=O)[C@H]1NC(=O)[C@H]1N (relative stereo) | 59 to 61

Row | SMILES | melting point [°C]
21 | CC(=O)OC1CCCC2=CCC3C4CCC(C(C)CCCC(C)C)C4(C)CCC3C21C (stereo not drawn) | 65 to 66
22 | CC(C)(O)C1CCN(Cc2ccc(COc3cccc4c3CN(C3CCC(=O)NC3=O)C4=O)cc2)CC1 (stereo not drawn) | 160 to 162
23 | CCOC(=O)CNC(=O)CN(C(=O)c1ccc(Cl)cc1)c1c(C)cccc1C | 127 to 129
24 | CCOC(=O)CCCNc1ccc(OCC(C)(C)C)c(C#N)c1 | 88
25 | C#CCN(c1ccc(C(=O)OC(C)(C)C)cc1)C1CCc2cc3nc(C)[nH]c(=O)c3cc21 (racemic) | 244 to 246
26 | Nc1nc(Nc2ccc(SC3(Cl)C=CC(C(F)(F)F)=CN3)cc2)sc1C(=O)c1c(Cl)cc(C(F)(F)F)cc1Cl (stereo not drawn) | 130 to 132
27 | COc1cc(N)c(Cl)cc1C(=O)NCC1CCN(CCCCCC(=O)c2ccc(C)c(C)c2)CC1 | 115 to 117
28 | CCCCCS(=O)(=O)NC(=O)CCc1cc(OCCOC)nn1Cc1ccc(Cl)cc1Cl | 108 to 112
29 | C=CCOC(=O)c1ccc(N=C(NC)c2ccc(OC)c(C34CC5CC(CC(C5)C3)C4)c2)cc1 | 77 to 79
30 | CCOC(=O)CSc1nc(Cl)cc(Nc2c(C)cc(C)cc2C)n1 | 100 to 103
31 | CC(C)(C)n1cnc2c1c1ccccc1n1nnnc21 | 224 to 226
32 | CCOC(=O)C1=C(N=CN(C)C)NC(C)=C(C(=O)OC(C)C)C1c1ccccc1Cl (stereo not drawn) | 138
33 | CCOC(=O)c1c(N2CCN(c3ccccc3)CC2)c2ccc(C)nc2n(CC)c1=O | 110 to 112
34 | CCOP(=O)(OCC)Oc1ccc(/C=C2/C(=O)Nc3cc(OC)c(OC)cc32)cc1 | 139 to 141
35 | O=C(Nc1ccc(-n2nc(C(F)(F)F)cc2C(F)(F)F)cc1-n1nc(C(F)(F)F)cc1C(F)(F)F)c1ccc(F)cc1F | 114 to 115
36 | COCCn1cc(C(=O)C(F)(F)F)c2c(Cl)cccc21 | 57 to 59
37 | Cn1c([N+](=O)[O-])cnc1-c1cc(C(N)=O)on1 | 235 to 238
38 | CCOC(=O)C1=C(C=O)NC(C(F)(F)F)=C(C(=O)OCC)C1c1cccc2nonc12 (stereo not drawn) | 94 to 95
39 | c1cc2sc(C3OCCO3)cc2s1 | 88 to 90
40 | Cc1c(N)ccc2c(O)c(C(=O)NCc3ccc(Cl)cc3)cnc12 | 256 to 258

Row | SMILES | melting point [°C]
41 | CCOCc1cc(C(C)(C)C)cc(COCC)c1SSc1c(COCC)cc(C(C)(C)C)cc1COCC | 62 to 63
42 | COC(=O)C(=CNC1CC1)C(=O)c1cc(F)c(Cl)cc1Cl | 150 to 151
43 | CCc1nc(N)nc(N)c1CCC(C)c1ccc(C(F)(F)F)cc1 (stereo not drawn) | 48 to 55
44 | CS(=O)(=O)N1CC1COc1ccc(C#N)cc1 (stereo not drawn) | 79 to 81
45 | Cc1c(C)c2c(c(C)c1OCc1ccccc1)CCC(C)(C(=O)O)O2 (stereo not drawn) | 154 to 155
46 | Cc1ccc(CC(=O)O)s1 | 54
47 | N#CCc1c[nH]c2ccc(NC(N)=O)cc12 | 200 to 204
48 | COC(=O)[C@@H]1C[C@H](O[Si](C)(C)C)C(=O)[C@H]2[C@@]1(C)CC[C@H]1C(=O)O[C@H](c3ccoc3)C[C@]21C | 197 to 200
49 | CNC(=O)Cc1c(C(=O)c2cc(C)ccn2)[nH]c2cc(Cl)ccc12 | 231
50 | CCCCCCCCCCCCCCC(CCC(=O)OCc1ccccc1)C(=O)O (stereo not drawn) | 62 to 63
51 | CC(C)(C)OC(=O)c1cc(-c2cccc(F)c2)c(=O)n2c1-c1sccc1CC2 | 135 to 137
52 | Cc1ccnc(NC(N)=S)c1 | 210 to 212
53 | Cc1cc(N2CC=C(C(=O)OC(C)C)CC2)c2cccc(-c3ccc(Cl)cc3Cl)c2n1 | 131 to 133
54 | CC(C)(C)N1C(=O)OC2(CCN(Cc3ccccc3)CC2)C1(C)O (stereo not drawn) | 179 to 181
55 | COc1ccc(C(=O)c2cccc(C(=O)O)c2)cc1 | 183 to 186
56 | Cc1cc(=O)c(-c2ccc(Oc3ccc(C(F)(F)F)cc3)cc2)c(C)[nH]1 | 258 to 260
57 | Cc1cc(Cl)cc(C(=O)NC(C)C)c1NC(=O)c1cc(C(F)(F)F)nn1-c1ncccc1Cl | 195 to 196
58 | COc1ccc(-c2nc(C)c(NC(C)=O)[nH]2)cc1 | 202 to 204

Second part, the compound after the results:

Row | melting point [°C] | SMILES
59 | 157 to 158 | O=[N+]([O-])c1cnn2c1-c1ccccc1NC2c1ccccc1 (stereo not drawn)
60 | 109 to 110 | c1cnc(N2CCN(Cc3ccc4ccccc4c3)CC2)nc1
61 | 72 to 76 | Fc1cccc(NC(=S)c2ccccn2)c1
62 | 225 to 226 | CC(C)n1nc(-c2sc(C(=O)NC3CCCCC3)nc2-c2ccccc2)ccc1=O
63 | 120 to 121 | O=S(=O)(Nc1ccccc1COc1cccc2cccnc12)c1cccc(C(F)(F)F)c1
64 | 57 to 58 | COc1ccc(C#Cc2ccccc2)cc1
65 | 156 to 157 | COCn1c(-c2ncc(CO)s2)cc2cccc(N(C)S(=O)(=O)c3cccs3)c21
66 | 85 to 87 | O=C(O)c1cc(OCCCCCCCCCCCCOc2ccccc2)ccc1OCc1ccccc1
67 | 225 to 226 | Cc1cc2c(-c3ccccc3C)c(NC(=O)Nc3ccc(F)cc3F)c(=O)n(C)c2cc1C
68 | 116 to 117 | Cc1sc(COc2ccc(/C=C/C=O)cc2)nc1-c1ccccc1
69 | 183 to 186 | Cc1ccc(N)cc1Nc1cc(-c2cccnc2)ccn1
70 | 77 to 81 | O=C(O)CCCNc1ccccc1CNC(=O)C1Cc2ccccc2N1S(=O)(=O)c1ccc(-c2cccc(C(F)(F)F)c2)cc1 (stereo not drawn)
71 | 223 | O=C(Nc1ccc[nH]c1=O)c1ccccc1F
72 | 104 to 105 | COc1cc(COc2nn(Cc3ccccc3)cc2CO)ccc1OCc1nc(-c2ccco2)oc1C
73 | 97 to 98 | O=C(c1ccc(F)cc1)c1ccc(Br)nc1
74 | 96 to 98 | OCC1OC(n2c(Br)nc3c(NCc4ccccc4)ncnc32)C(O)C1O (stereo not drawn)
75 | 346 | O=c1[nH]c2ccc(Cl)cc2n2cc(-c3ccccc3)cc12
76 | 137 to 138 | O=C(OCc1ccccc1)c1ccc(OC(=O)c2ccc(O)cc2)cc1
77 | 75 to 77 | CN(C)Cc1c(Cl)nc(-c2ccccc2)c2ccccc12
78 | 143 to 148 | Cc1cc(-c2ccccc2)n2nc(C(F)(F)F)c(C#N)c2n1

Row | melting point [°C] | SMILES
79 | 248 to 251 | COC(=O)Cn1c2c(c3ccccc3c1=O)C(=O)c1ccccc1-2
80 | 212 to 213 | CN(CC1CCc2c(cccc2OCC(=O)O)C1)c1cnc(-c2ccccc2)c(-c2ccccc2)n1 (stereo not drawn)
81 | 185 to 186 | CN1CCNC(=O)C1c1ccc([N+](=O)[O-])cc1 (stereo not drawn)
82 | 136 | O=C(Nc1ccccc1S(=O)(=O)c1ccccc1)N[C@@H](Cc1ccc(Oc2nccc3cnccc23)cc1)C(=O)O
83 | 84 to 85 | CC1(CCO)c2ccccc2-c2ccccc21
84 | 157 to 159 | O=C(NCNC(=O)c1ccccc1C(=O)c1ccccc1)Nc1cccc(C(=O)OCc2ccccc2)c1
85 | 115 | Cc1ccc(S(=O)(=O)N2[C@@H](c3noc(C)n3)CC[C@H]2c2ccc(F)cc2)cc1 (racemic)
86 | 229 to 230 | NS(=O)(=O)c1cc(C(=O)O)cc(NCc2ccc3c(c2)OCO3)c1Oc1ccccc1
87 | 122 to 124 | Cc1c(-c2ccccc2)nn2c1-c1ccccc1CC2
88 | 67 | O=C1CCCc2ccc(-c3ccccc3)cc21
89 | 115 to 117 | CS(=O)(=O)Oc1cc(=O)c(OCc2ccccc2)cn1Cc1ccccc1
90 | 167 | CC(C)(C)OC(=O)Nc1ccc(-c2ccccc2F)cc1NC(=O)CC(=O)c1cccc([N+](=O)[O-])c1
91 | 130 | O=[N+]([O-])c1ccc2snc(-c3ccccc3)c2c1
92 | 240 to 242 | NC(=O)c1c(Cl)c(-c2ccccc2)n2c1CN(S(=O)(=O)c1cccs1)CC2
93 | 156 to 159 | CS(=O)(=O)c1ccc(-n2cc(-c3cccc(Cl)c3)nc2-c2ccc(Cl)cc2)cc1
94 | 126 to 127 | COc1cc(CO)ccc1OCc1nc(-c2ccccc2)cn1C
95 | 124 to 125 | Cc1oc(-c2ccccc2)nc1COc1ccc(CON=C(CCC(=O)O)c2ccco2)cc1
96 | 150 to 152 | CC(c1ccc(-c2ccccc2)s1)N(O)C(N)=O (stereo not drawn)
97 | 126 to 129 | N#CCCc1cccc2c1N(Cc1cccc(/C=C/c3ccc4ccccc4n3)c1)CC2
98 | 166 to 188 | O=C(NCCO)C(O)C(Oc1ccccc1[N+](=O)[O-])c1ccccc1 (stereo not drawn)
